Measurements reported in patent US10238631B2, “Sesquiterpene derivatives and their use in inflammation or cancer treatment” (Academia Sinica, priority 2014, dated 2019).
Read-outs that look alike come from different tables or passages of the source.

Columns and labels:
[1] = test system: TS/A (ER+, Her2−) murine mammary cancer cells; test: MTT cell viability assay, TS/A cells; format: cell-based; details: Mus musculus, 24 h, read-out: IC50 on cell viability, TS/A (ER+, Her2−)
Procedure: (§1) Normal or cancer cells (2×10^3 to 1×10^4 cells/well) were seeded in 96-well plate for overnight and treated with different compounds for 24 h to 72 h. Cells growth were determined by MTT-based colorimetric assays according to. Viability of the test cells treated with vehicle (0.5% DMSO) only was defined as 100% viable. Survival of cells after treatment with DETDs was calculated using the following formula: viable cell number (%)=OD570 (treated cell culture)/OD570 (vehicle control)×100.
(§2) Sixty DETDs were derived from parental compound […] and tested for anti-breast cancer cell activity.

[2] = test system: MDA-MB-231 (ER−, PR−, Her2−) human breast cancer cells; test: MTT cell viability assay, MDA-MB-231 cells; format: cell-based; details: Homo sapiens, MDA-MB-231, 24 h, read-out: IC50 on cell viability, MDA-MB-231 (ER−, PR−, Her2−)
Procedure: as §1, §2

[3] = test system: MCF-7 (ER+, Her2−) human breast cancer cells; test: MTT cell viability assay, MCF-7 cells; format: cell-based; details: MCF7, 24 h, read-out: IC50 on cell viability, MCF-7 (ER+, Her2−)
Procedure: as §1, §2

[4] = test system: M10 normal mammary epithelial cells; test: MTT cell viability assay, M10 normal cells; format: cell-based, human; details: Homo sapiens, Epithelial cell, 24 h
Procedure: as §1, §2

B16-F10 (NRAS mutation) = test: MTT cell viability assay, B16-F10 melanoma; format: cell-based; details: Mus musculus, B16-F10, 24 h, read-out: IC50 on cell viability, B16-F10 (NRAS mutation)
Procedure: as §1
(§3) Several genes are involved in melanoma development and pathology; specifically, mutation in V-raf murine sarcoma viral oncogene homolog B1 (B-RAF) occurs approximately 50-60% and in neuroblastoma RAS viral oncogene homolog (N-RAS) occurs about 30% of malignant melanomas. A spectrum of wild-type or mutated melanoma cell lines including B16-F10, MeWo, A375, A2058, HTB-68, and melanocyte were used to study anti-melanoma cell proliferation activity of parental phytocompound DET and newly synthesized DETDs.

[5] = test system: MeWo (No NRAS or BRAF mutation); test: MTT cell viability assay, MeWo melanoma; format: cell-based, human; details: Homo sapiens, MeWo, 24 h
Procedure: as §1, §3

HTB-68 (NRAS mutation) = test: MTT cell viability assay, HTB-68 melanoma; format: cell-based, human; details: Homo sapiens, 24 h
Procedure: as §1, §3

A2058 (BRAF mutation) = test: MTT cell viability assay, A2058 melanoma; format: cell-based, human; details: Homo sapiens, A2058, 24 h
Procedure: as §1, §3

A375 (BRAF mutation) = test: MTT cell viability assay, A375 melanoma; format: cell-based, human; details: Homo sapiens, A-375, 24 h, read-out: IC50 on cell viability, A375 (BRAF mutation)
Procedure: as §1, §3
To investigate whether or not DETD-35 show synergism with PLX4032 against A375 melanoma cells, we performed anti-proliferation assay using MTT reagent to obtain IC50 of each compound. […] The synergistic effect was quantified by combination index (CI) analysis as stated above.

[6] = test system: Melanocyte (Normal cells); test: MTT cell viability assay, normal melanocytes; format: cell-based, human; details: Homo sapiens, Melanocyte, 24 h
Procedure: as §1, §3

[7] = test system: RAW264.7 (normal macrophage); test: MTT cell viability assay, RAW264.7 macrophages; format: cell-based, mouse; details: Mus musculus, RAW264.7, 24 h
Procedure: as §1
(§4) Marcophages (2×10^5 cells/well in 96-well plate) were treated with compounds for 1 h, then incubated further for 24 h with or without the presence of […] LPS in the cultural medium. Nitrite levels in cell culture medium were determined by the Griess reaction method. In parallel to the Griess assays, macrophage cell viabilities were determined using the MTT based colorimetric assay.

[8] = test system: LPS-induced nitric oxide (NO) production in RAW 264.7 cells; test: Nitric oxide production in LPS-stimulated macrophages (Griess); format: cell-based, mouse; details: Mus musculus; LPS-stimulated RAW264.7, nitrite 24 h after LPS
Procedure: as §4
LPS from the outer membrane of Gram-negative bacteria can induce mRNA or protein levels of inducible nitric oxide synthase (iNOS), which catalyzes oxidative deamination of L-arginine to produce nitric oxide (NO). Once NO is predominantly produced, it interacts with superoxide anion and generates highly reactive oxidants resulting in cellular inflammation, DNA, protein and tissue damages, carcinogenesis, and antiapoptosis. We used in vitro LPS stimulated inflammation in RAW264.7 cell system to evaluate the effect of DET and its derivatives DETDs on NO production by determination of nitrite level (equivalent to NO level) in culture medium 24 h after LPS treatment.

Compound | IC50 [1] [µM] | IC50 [2] [µM] | IC50 [3] [µM] | IC50 [4] [µM] | IC50 (B16-F10 (NRAS mutation); 24 h) [µM] | IC50 [5] [µM] | IC50 (HTB-68 (NRAS mutation)) [µM] | IC50 (A2058 (BRAF mutation)) [µM] | IC50 (A375 (BRAF mutation); 24 h, MTT) [µM] | IC50 [6] [µM] | IC50 [7] [µM] | IC50 [8] [µM] | IC50 (B16-F10 (NRAS mutation)) [µM] | IC50 (A375 (BRAF mutation)) [µM]
C=C1C(=O)OC2CC3=C[C@@H](C/C(C)=C/C(OC(=O)C(CC)CC)[C@H]12)OC3=O (some centres unmarked) [DETD-16] | 2.1 | 7 | 3.9 | > 7.5 | > 10 | > 10 | > 10 | > 10 | > 10 | > 10 | > 10 | 3.2 |  | 
C=C1C(=O)OC2CC3=C[C@@H](C/C(C)=C/C(OC(=O)/C=C/c4ccc(OC)c(OC)c4)[C@H]12)OC3=O (some centres unmarked) [DETD-49] | > 7.5 | 9.5 | > 7.5 | > 7.5 | > 10 | > 10 | > 10 | > 10 | 4.9 | > 10 | > 10 | 3.4 |  | 
C=C1C(=O)OC2CC3=C[C@@H](C/C(C)=C/C(OC(=O)c4ccccc4)[C@H]12)OC3=O (some centres unmarked) [DETD-31] | 2 | 4.5 | 5.9 | > 7.5 | 2.9 | > 10 | > 10 | > 10 | 4.3 | > 10 | > 10 | 3.2 |  | 
C=C(C)C(=O)O[C@H]1CC2=C[C@@H](C/C(C)=C/[C@H]3OC(=O)[C@@H](CN(C)C)[C@H]13)OC2=O [DETD-1] | 6.2 | > 7.5 | > 7.5 | > 7.5 | > 10 | > 10 | > 10 | > 10 | > 10 | > 10 | > 10 | 5 |  | 
C=C1C(=O)OC2CC3=C[C@@H](C/C(C)=C/C(OC(=O)Cc4ccccc4)[C@H]12)OC3=O (some centres unmarked) [DETD-43] | 2.4 | 6.9 | > 7.5 | > 7.5 |  | > 10 | 8.2 | 8.7 |  | > 10 | > 10 | 3.5 | 7.4 | 3.6
C=C1C(=O)OC2CC3=C[C@@H](C/C(C)=C/C(OC(=O)C(C)CCCC)[C@H]12)OC3=O (some centres unmarked) [DETD-22] | 1.8 | 4.3 | 2.5 | 4.7 | 6.8 | > 10 | > 10 | > 10 | > 10 | > 10 | > 10 | 3.5 |  | 
C=C1C(=O)OC2CC3=C[C@@H](C/C(C)=C/C(OC(=O)C4CCCCC4)[C@H]12)OC3=O (some centres unmarked) [DETD-38] | 2.6 | 5.2 | 4.6 | > 7.5 | 3.9 | > 10 | 9.5 |  | 5.1 | > 10 | > 10 | 1.7 |  | 
C=C1C(=O)OC2CC3=C[C@@H](C/C(C)=C/C(OC(=O)/C=C(\C)C(C)C)[C@H]12)OC3=O (some centres unmarked) [DETD-12] | 3.3 | 7 | 4.2 | > 7.5 | 7.2 | > 10 | > 10 | > 10 | > 10 | > 10 | > 10 | 3.2 |  | 
C=C1C(=O)OC2CC3=C[C@@H](C/C(C)=C/C(O)[C@H]12)OC3=O (some centres unmarked) [DETD-3] | 7.5 | > 7.5 | > 7.5 | > 7.5 | > 10 | > 10 | > 10 | > 10 | > 10 | > 10 | > 10 | > 10 |  | 
C=C1C(=O)OC2CC3=C[C@@H](C/C(C)=C/C(OC(=O)C4CCCC4)[C@H]12)OC3=O (some centres unmarked) [DETD-37] | 3 | 6.7 | 6.2 | > 7.5 | 3.8 | > 10 | > 10 | > 10 | > 10 | > 10 | > 10 | 2 |  | 
C=C1C(=O)OC2CC3=C[C@@H](C/C(C)=C/C(OC(=O)C=C(C)CCC=C(C)C)[C@H]12)OC3=O (some centres unmarked) [DETD-14] | > 7.5 | > 7.5 | > 7.5 | > 7.5 | > 10 | > 10 | > 10 | > 10 | > 10 | > 10 | > 10 | 2.2 |  | 
C=C1C(=O)OC2CC3=C[C@@H](C/C(C)=C/C(OC(=O)/C=C/c4ccco4)[C@H]12)OC3=O (some centres unmarked) [DETD-29] | 2.2 | 4.9 | 4.1 | > 7.5 | 6.7 | > 10 | > 10 | > 10 | > 10 | > 10 | > 10 | 1.6 |  | 
C=C1C(=O)OC2CC3=C[C@@H](C/C(C)=C/C(OC(=O)/C=C/c4cc(OC)c(OC)c(OC)c4)[C@H]12)OC3=O (some centres unmarked) [DETD-7] | 1.8 | 6.1 | 2.3 | > 7.5 | 4.8 | > 10 | 8.4 | 5.5 | 4.9 | > 10 | > 10 | 2.2 |  | 
C=C1C(=O)OC2CC3=C[C@@H](C/C(C)=C/C(OC(=O)C=C(C)C)[C@H]12)OC3=O (some centres unmarked) [DETD-8] | 1.9 | 6.7 | 3.4 | > 7.5 | 6.8 | > 10 | > 10 | > 10 | > 10 | > 10 | > 10 | 2.5 |  | 
C=C(CC)C(=O)OC1/C=C(\C)C[C@@H]2C=C(CC3OC(=O)C(=C)[C@@H]13)C(=O)O2 (some centres unmarked) [DETD-19] | 1.7 | 4.6 | 3.5 | > 7.5 | 7.8 | > 10 | > 10 | > 10 | > 10 | > 10 | > 10 | 3.8 |  | 
C=C1C(=O)OC2CC3=C[C@@H](C/C(C)=C/C(OC(=O)/C(C)=C/CC)[C@H]12)OC3=O (some centres unmarked) [DETD-5] | 1.6 | 4.6 | 2.4 | > 7.5 | 4.7 | > 10 | 7.8 | 5.8 | 4.1 | > 10 | > 10 | 2.4 |  | 
C=C1C(=O)OC2CC3=C[C@@H](C/C(C)=C/C(OC(=O)CC(C)(CC)OC(C)=O)[C@H]12)OC3=O (some centres unmarked) [DETD-11] | 2.9 | > 7.5 | 4.2 | > 7.5 |  | > 10 | > 10 | > 10 |  | > 10 | > 10 | 2.3 | > 10 | > 10
